Results published in patent publication US11485742B2, “2-azaspiro[3.4]octane derivatives as M4 agonists” (NOVARTIS AG, priority 2019, dated 2022).

Legend:
[1] = biological target: T1, human cloned CHRM2 receptor (Homo sapiens, UniProt P08172); assay: CHRM2 Ca++ Flux Assay (M2_CHO cells, agonist mode); assay type: cell-based; conditions: M2 CHO cells; for EC50: agonist mode, geometric mean if tested more than once, read-out: M2 FDSS EC50; for Emax: read-out: M2 FDSS PA %
T1 construct: expressed in transfected cells; host or cells: CHO-K1 (M2_CHO)
T1 sequence (P08172 1-466): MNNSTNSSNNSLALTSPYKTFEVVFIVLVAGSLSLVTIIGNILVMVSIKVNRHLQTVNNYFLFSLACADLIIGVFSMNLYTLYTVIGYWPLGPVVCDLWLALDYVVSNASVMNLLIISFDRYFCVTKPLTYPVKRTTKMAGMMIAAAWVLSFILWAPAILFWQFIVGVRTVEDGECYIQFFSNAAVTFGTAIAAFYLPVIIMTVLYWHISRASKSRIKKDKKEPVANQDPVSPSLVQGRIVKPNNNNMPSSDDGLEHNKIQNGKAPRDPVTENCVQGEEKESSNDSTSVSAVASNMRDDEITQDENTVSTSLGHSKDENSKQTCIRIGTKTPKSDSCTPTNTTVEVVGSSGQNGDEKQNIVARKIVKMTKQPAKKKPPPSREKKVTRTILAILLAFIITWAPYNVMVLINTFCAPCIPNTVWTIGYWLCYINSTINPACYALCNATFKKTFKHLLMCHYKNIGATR
Method in brief: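 CHO-K1 cells stably expressing human CHRM2 were plated overnight at 12K cells/well and loaded with Ca++ dye for 1–2 h. They were then held 60 minutes in HBSS −Ca/−Mg, 20 mM HEPES, 2.5 mM probenecid, 20 μM ATP. Agonist-mode Ca++ flux was read over 3 minutes. Four-parameter fits of triplicates gave percent activity relative to carbachol EC100.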

[2] = biological target: T2, human cloned CHRM4 receptor (Homo sapiens, UniProt P08173); assay: CHRM4 Ca++ Flux Assay (M4_CHO cells, agonist mode); assay type: cell-based; conditions: for Emax: read-out: M4 FDSS PA %; for EC50: geometric mean if tested more than once, read-out: M4 FDSS EC50
T2 construct: expressed in transfected cells; host or cells: CHO-K1 (M4_CHO)
T2 sequence (P08173 1-479): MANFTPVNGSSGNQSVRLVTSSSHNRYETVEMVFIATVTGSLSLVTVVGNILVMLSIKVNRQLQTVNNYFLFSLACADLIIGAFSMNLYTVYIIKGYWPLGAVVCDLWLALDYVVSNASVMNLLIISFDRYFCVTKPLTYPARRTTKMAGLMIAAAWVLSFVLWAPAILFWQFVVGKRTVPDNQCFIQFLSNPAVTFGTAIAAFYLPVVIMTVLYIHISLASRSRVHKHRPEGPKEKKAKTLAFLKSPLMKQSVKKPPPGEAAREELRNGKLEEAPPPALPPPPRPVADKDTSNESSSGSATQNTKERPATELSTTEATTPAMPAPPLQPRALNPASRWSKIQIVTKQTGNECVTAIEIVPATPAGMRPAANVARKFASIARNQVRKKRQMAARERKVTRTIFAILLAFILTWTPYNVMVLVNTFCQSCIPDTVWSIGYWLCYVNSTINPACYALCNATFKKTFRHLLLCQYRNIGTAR
Method in brief: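 CHO-K1 cells stably expressing human M4 were dye-loaded, then held 60 min at RT in Ca/Mg-free HBSS buffer with 20 μM ATP. Ca++ traces were recorded over 3 min after an 11-point compound series in triplicate, agonist mode, with a four-parameter fit. Percent activity is relative to the carbachol EC100; repeat tests are geometric means.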

[3] = Percent Activity (PA) measured to EC100 of Carbachol

SMILES	EC50 [1]	Emax [1, 3]	Emax ([2]; Percent Activity (PA))	EC50 [2]	M2 FDSS PA % [1, 3]	M4 FDSS PA % ([2]; Percent Activity (PA))
Fc1cc(F)c(OC2CCOCC2)c(C2CCN([C@@H]3COC4(C3)CN(c3nnco3)C4)CC2)c1 [Example 2BB, (S)-7-(4-(3,5-difluoro-2-((tetrahydro-2H-pyran-4-yl)oxy)phenyl)piperidin-1-yl)-2-(1,3,4-oxadiazol-2-yl)-5-oxa-2-azaspiro[3.4]octane]	4850 nM	27%	91%	946 nM		
Fc1cc(F)c(O[C@@H]2CCOC2)c(C2CCN([C@@H]3COC4(C3)CN(c3nnco3)C4)CC2)c1 [Example 2CC, (S)-7-(4-(3,5-difluoro-2-(((R)-tetrahydrofuran-3-yl)oxy)phenyl)piperidin-1-yl)-2-(1,3,4-oxadiazol-2-yl)-5-oxa-2-azaspiro[3.4]octane]	2070 nM	37%	79%	168 nM		
Fc1cc(F)c(OCC2COC2)c(C2CCN([C@@H]3COC4(C3)CN(c3nnco3)C4)CC2)c1 [Example 2DD, (S)-7-(4-(3,5-difluoro-2-(oxetan-3-ylmethoxy)phenyl)piperidin-1-yl)-2-(1,3,4-oxadiazol-2-yl)-5-oxa-2-azaspiro[3.4]octane]	6760 nM	23%	64%	155 nM		
Fc1cc(F)c(OC2COC2)c(C2CCN([C@@H]3COC4(C3)CN(c3nnco3)C4)CC2)c1 [Example 2EE, (S)-7-(4-(3,5-difluoro-2-(oxetan-3-yloxy)phenyl)piperidin-1-yl)-2-(1,3,4-oxadiazol-2-yl)-5-oxa-2-azaspiro[3.4]octane]	2940 nM	50%	74%	86 nM		
Fc1cc(OC2COC2)c(C2CCN([C@@H]3COC4(C3)CN(c3nnco3)C4)CC2)cc1F [Example 2FF, (S)-7-(4-(4,5-difluoro-2-(oxetan-3-yloxy)phenyl)piperidin-1-yl)-2-(1,3,4-oxadiazol-2-yl)-5-oxa-2-azaspiro[3.4]octane]	312 nM	28%	66%	26 nM		
Fc1cc(OC2CCOCC2)c(C2CCN([C@@H]3COC4(C3)CN(c3nnco3)C4)CC2)cc1F [Example 2GG, (S)-7-(4-(4,5-difluoro-2-((tetrahydro-2H-pyran-4-yl)oxy)phenyl)piperidin-1-yl)-2-(1,3,4-oxadiazol-2-yl)-5-oxa-2-azaspiro[3.4]octane]	> 25000 nM	0%	58%	87 nM		
C[C@H](Oc1ccc(F)cc1C1CCN([C@@H]2COC3(C2)CN(c2nnco2)C3)CC1)C1CCOCC1 [Example 2X, (S)-7-(4-(5-fluoro-2-((S)-1-(tetrahydro-2H-pyran-4-yl)ethoxy)phenyl)piperidin-1-yl)-2-(1,3,4-oxadiazol-2-yl)-5-oxa-2-azaspiro[3.4]octane or(S)-7-(4-(5-fluoro-2-((R)-1-(tetrahydro-2H-pyran-4-yl)ethoxy)phenyl)piperidin-1-yl)-2-(1,3,4-oxadiazol-2-yl)-5-oxa-2-azaspiro[3.4]octane]	11200 nM			1780 nM	23%	40%
Fc1ccc(OCC2C3COCC32)c(C2CCN([C@@H]3COC4(C3)CN(c3nnco3)C4)CC2)c1 (stereo partly drawn) [Example 2Z, (7S)-7-(4-(2-((3-oxabicyclo[3.1.0]hexan-6-yl)methoxy)-5-fluorophenyl)piperidin-1-yl)-2-(1,3,4-oxadiazol-2-yl)-5-oxa-2-azaspiro[3.4]octane]	760 nM	24%	51%	108 nM		
c1ccc(C2CCN([C@@H]3COC4(C3)CN(c3nnco3)C4)CC2)c(C2CCOCC2)c1 [Example 3C, (S)-2-(1,3,4-oxadiazol-2-yl)-7-(4-(2-(tetrahydro-2H-pyran-4-yl)phenyl)piperidin-1-yl)-5-oxa-2-azaspiro[3.4]octane]	4820 nM	34%	85%	184 nM		
Fc1ccc(C2CCOCC2)c(C2CCN([C@@H]3COC4(C3)CN(c3nnco3)C4)CC2)c1 [Example 3D, (S)-7-(4-(5-fluoro-2-(tetrahydro-2H-pyran-4-yl)phenyl)piperidin-1-yl)-2-(1,3,4-oxadiazol-2-yl)-5-oxa-2-azaspiro[3.4]octane]	1920 nM	48%	84%	63 nM		
c1ccc(C2CCN([C@@H]3COC4(C3)CN(c3nnco3)C4)CC2)c(CC2CCOCC2)c1 [Example 3G, (S)-2-(1,3,4-oxadiazol-2-yl)-7-(4-(2-((tetrahydro-2H-pyran-4-yl)methyl)phenyl)piperidin-1-yl)-5-oxa-2-azaspiro[3.4]octane]	3660 nM	16%	82%	185 nM		

Second part, the molecule after the results:

EC50 [1]	Emax [1, 3]	Emax ([2]; Percent Activity (PA))	EC50 [2]	M2 FDSS PA % [1, 3]	M4 FDSS PA % ([2]; Percent Activity (PA))	SMILES
432 nM	21%	80%	4 nM			Fc1ccc(OC2COC2)c(C2CCN([C@@H]3COC4(C3)CN(c3ncco3)C4)CC2)c1 [Example 4A, (S)-7-(4-(5-fluoro-2-(oxetan-3-yloxy)phenyl)piperidin-1-yl)-2-(oxazol-2-yl)-5-oxa-2-azaspiro[3.4]octane]
> 25000 nM	32%	77%	4 nM			Fc1ccc(OC[C@H]2COCCO2)c(C2CCN([C@@H]3COC4(C3)CN(c3ncco3)C4)CC2)c1 [Example 4B, (S)-7-(4-(2-(((R)-1,4-dioxan-2-yl)methoxy)-5-fluorophenyl)piperidin-1-yl)-2-(oxazol-2-yl)-5-oxa-2-azaspiro[3.4]octane]
433 nM	38%	80%	7 nM			c1ccc(C2CCN([C@@H]3COC4(C3)CN(c3ncco3)C4)CC2)c(OC2COC2)c1 [Example 4C, (S)-2-(oxazol-2-yl)-7-(4-(2-(oxetan-3-yloxy)phenyl)piperidin-1-yl)-5-oxa-2-azaspiro[3.4]octane]
> 25000 nM	17%	77%	7 nM			Fc1ccc(O[C@@H]2CCOC2)c(C2CCN([C@@H]3COC4(C3)CN(c3ncco3)C4)CC2)c1 [Example 4D, (S)-7-(4-(5-fluoro-2-(((R)-tetrahydrofuran-3-yl)oxy)phenyl)piperidin-1-yl)-2-(oxazol-2-yl)-5-oxa-2-azaspiro[3.4]octane]
> 25000 nM	0%	81%	12 nM			Fc1ccc(OC2CCOCC2)c(C2CCN([C@@H]3COC4(C3)CN(c3ncco3)C4)CC2)c1 [Example 4E, (S)-7-(4-(5-fluoro-2-((tetrahydro-2H-pyran-4-yl)oxy)phenyl)piperidin-1-yl)-2-(oxazol-2-yl)-5-oxa-2-azaspiro[3.4]octane]
3260 nM	17%	80%	15 nM			c1ccc(C2CCN([C@@H]3COC4(C3)CN(c3ncco3)C4)CC2)c(O[C@@H]2CCOC2)c1 [Example 4F, (S)-2-(oxazol-2-yl)-7-(4-(2-(((R)-tetrahydrofuran-3-yl)oxy)phenyl)piperidin-1-yl)-5-oxa-2-azaspiro[3.4]octane]
13100 nM	58%	68%	17 nM			Fc1ccc(OC2CC3(COC3)C2)c(C2CCN([C@@H]3COC4(C3)CN(c3ncco3)C4)CC2)c1 [Example 4G, (S)-7-(4-(2-((2-oxaspiro[3.3]heptan-6-yl)oxy)-5-fluorophenyl)piperidin-1-yl)-2-(oxazol-2-yl)-5-oxa-2-azaspiro[3.4]octane]
> 25000 nM	20%	69%	17 nM			c1ccc(C2CCN([C@@H]3COC4(C3)CN(c3ncco3)C4)CC2)c(O[C@H]2CCOC2)c1 [Example 4H, (S)-2-(oxazol-2-yl)-7-(4-(2-(((S)-tetrahydrofuran-3-yl)oxy)phenyl)piperidin-1-yl)-5-oxa-2-azaspiro[3.4]octane]
